Source: patent US4622301A, “2-Oxocarboxylic acid reductase and its preparation” (BASF Aktiengesellschaft, priority 1983, dated 1986)
Values belong to the compound of their own block, whether it stands above or below them.

Tests used:
[1] = test system: 2-oxocarboxylic acid reductase
[2] = test system: 2-oxocarboxylic acid reductase; assay: Relative rates of reduction of 2-oxocarboxylic acids, enzyme from P. mirabilis; format: biochemical, Proteus mirabilis; settings: for Relative rates (of reduction): P. mirabilis enzyme, rate for phenylpyruvate taken as 1
[3] = test system: 2-oxocarboxylic acid reductase; assay: Relative rates of reduction of 2-oxocarboxylic acids, enzyme from P. vulgaris; format: biochemical, Proteus vulgaris; settings: rate for phenylpyruvate taken as 1
Procedure: In an electrochemical cell, 25 ml of a solution of 100 mM potassium phosphate buffer at pH 7.0, 4 mM methylviologen and 40 mM phenylpyruvate were reduced with 0.5 mg of 2-oxoacid reductase according to Example 3 at a voltage of -700 mV, against a standard calomel electrode. The current of 5.8 mA decreased sharply after 9 hours. According to HPLC analysis, the reaction solution contained 88% of the phenyllactic acid expected. The solution was acidified to pH 1.8 with dilute sulfuric acid and then extracted with ether. […] A pure commercial preparation of (2S)-sodium phenyllactate gave a value of -21.4°, measured under the same conditions. (R)-mandelic acid and (R)-2-hydroxy-4-methylpentanoate were prepared by a similar method.
3-Oxocarboxylic acids and hydroxyacetone are not reduced.

[4] = test system: 2-oxocarboxylic acid reductase; assay: Initial rates with increasing concentrations of oxidized methylviologen, P. vulgaris enzyme; format: biochemical, Proteus vulgaris; settings: 2-oxo-4-methylpentanoate, pH 7.0
Procedure: (§1) In the presence of increasing concentrations of MV^++ and 0.15 mM MV^+, the initial rates show the following behavior:
(§2) (0.3 ml of 0.1M trisacetate buffer of pH 7.0, 2 μmole of 2-oxo-4-methylpentanoate, the same amount of enzyme in each case, 0.2 mM of reduced methylviologen and the concentrations of oxidized methylviologen stated in the table were incubated in a 2 mm cell.)

[5] = test system: 2-oxocarboxylic acid reductase; assay: Initial rates with increasing concentrations of oxidized methylviologen, P. mirabilis enzyme; format: biochemical, Proteus mirabilis; settings: for Initial rate: P. mirabilis, 2-oxo-4-methylpentanoate, pH 7.0
Procedure: as §1, §2

Compound: O=C(O)CN(CCN(CC(=O)O)CC(=O)O)CC(=O)O [EDTA]
effect on the activity of the enzyme [1]: not affected

Reduction by the enzyme (in words) [2]: not reduced
Relative rates (of reduction) [2]: 0
Compound: CC(=O)CO [Hydroxyacetone]

Relative rates (of reduction) [3]: 0.04
Relative rates (of reduction) [2]: 0.07
Compound: CC(C)(CO)C(=O)C(=O)O [2-Oxopantoate]

Compound: C[n+]1ccc(-c2cc[n+](C)cc2)cc1 [MV^++, methylviologen]
Initial rate ([4]; MV++ 0.01 mM): 13.3 U/ml
Initial rate ([4]; MV++ 0.08 mM): 24.4 U/ml
Initial rate ([4]; MV++ 0.16 mM): 31.3 U/ml
Initial rate ([4]; MV++ 0.75 mM): 41.5 U/ml
effect on the activity of the enzyme (in words) [5]: can be increased
Initial rate ([5]; MV++ 0.01 mM): 18.1 U/ml
Initial rate ([5]; MV++ 0.08 mM): 41.9 U/ml
Initial rate ([5]; MV++ 0.16 mM): 46.0 U/ml
Initial rate ([5]; MV++ 0.75 mM): 62.0 U/ml
